# Source: PMC8667612 (Journal of medicinal chemistry, 2021)
# “And” between values parts separate entries of the source, which are not always exact repeats. Identical values can stand only once.
# Tests used:
# N. fowleri trophozoites = experiment: N. fowleri cellular growth inhibition assay; assay type: cell-based; details: Naegleria fowleri, 96 h, read-out: minimal inhibitory concentration (MIC)
# [1] = Blood–brain permeability assay, multiple oral doses; assay type: in vivo, BALB/c mice; details: mice, oral gavage 25 mg/kg twice a day for 5 days, samples 4 h after each administration
# N. fowleri CYP51 [2] = target: T1, N. fowleri CYP51 (Naegleria fowleri, UniProt A0A6A5BCR7, E4K/I5A/S2A, form not given)
# [3] = cited from earlier work
# N. fowleri CYP51 [4] = target: T1, N. fowleri CYP51; assay type: binding; details: Type I spectral response, ~2 μM P450
# N. fowleri CYP51 [5] = target: T1, N. fowleri CYP51; assay type: biochemical; details: 0.5 μM P450, 60 s at 37 °C, sterol 3–50 μM
SMILES,concentration giving complete inhibition of N. fowleri CYP51 activity (N. fowleri CYP51 [2]) [µM],low- to high-spin state transition in the heme iron (N. fowleri CYP51 [4]) [%],other results
"O=C(N[C@@H](Cn1ccnc1)c1c(F)cc(-c2ccc(F)cc2)cc1F)c1ccc(-c2nnc(-c3ccccc3)o2)cc1 [F-VFV, (R)-N-(2-(1H-imidazol-1-yl)-1-(3,4’,5-trifluoro-[1,1’-biphenyl]-4-yl)ethyl)-4-(5-phenyl-1,3,4-oxadiazol-2-yl)benzamide]",3.0,–,MIC (N. fowleri trophozoites): 3.3 µM and 1.9 µg/mL; average concentration in the brain [1]: 2.2 ± 0.2 µM; NOAEL [3]: > 200 mg/kg
"O=C(N[C@@H](Cn1ccnc1)c1ccc(Cl)cc1Cl)c1ccc(-c2nnc(-c3ccc(C(F)(F)F)c(F)c3)o2)cc1 [FCF3-VNI, (R)-N-(1-(2,4-dichlorophenyl)-2-(1H-imidazol-1-yl)ethyl)-4-(5-(3-fluoro-4-(trifluoromethyl)phenyl)-1,3,4-oxadiazol-2-yl)benzamide]",> 50,–,–
"O=C(N[C@@H](Cn1ccnc1)c1ccc(Cl)cc1Cl)c1ccc(-c2nnc(-c3ccc(F)c(F)c3)o2)cc1 [FF-VNI, (R)-N-(1-(2,4-dichlorophenyl)-2-(1H-imidazol-1-yl)-ethyl)-4-(5-(3,4-difluorophenyl)-1,3,4-oxadiazol-2-yl)-benzamide]",6,–,MIC (N. fowleri trophozoites): 2.7 µM and 1.5 µg/mL; average concentration in the brain [1]: 3.5 ± 0.3 µM; NOAEL [3]: > 200 mg/kg
"O=C(N[C@@H](Cn1ccnc1)c1ccc(-c2ccc(F)cc2)cc1F)c1ccc(-c2nnc(-c3ccccc3)o2)cc1 [VFV, (R)-N-(1-(3,4’-difluoro-[1,1’-biphenyl]-4-yl)-2-(1H-imidazol-1-yl)-ethyl)-4-(5-phenyl-1,3,4-oxadiazol-2-yl)benzamide]",6.0,–,–
"O=C(N[C@@H](Cn1ccnc1)c1ccc(Cl)cc1Cl)c1ccc(-c2nnc(-c3ccccc3)o2)cc1 [VNI, (R)-N-(1-(2,4-dichlorophenyl)-2-(1H-imidazol-1-yl)-ethyl)-4-(5-phenyl-1,3,4-oxadiazol-2-yl)benzamide]",50,–,–
CC(C)=CCC[C@@H](C)[C@H]1CC[C@@]2(C)[C@@H]3CC[C@H]4C(C)(C)[C@@H](O)CC[C@@]45C[C@@]35CC[C@]12C [cycloartenol],–,25,–
CC(C)=CCC[C@@H](C)[C@H]1CC[C@@]2(C)C3=C(CC[C@]12C)[C@@]1(C)CC[C@H](O)C(C)(C)[C@@H]1CC3 [lanosterol],–,70,kcat (N. fowleri CYP51 [5]): 1.07 s⁻¹
CC(C)=CCC[C@@H](C)[C@H]1CC[C@@]2(C)C3=C(CC[C@]12C)[C@@]1(C)CC[C@H](O)[C@H](C)[C@@H]1CC3 [norlanosterol],–,94,–
C=C(CC[C@@H](C)[C@H]1CC[C@@]2(C)C3=C(CC[C@]12C)[C@@]1(C)CC[C@H](O)[C@@H](C)[C@@H]1CC3)C(C)C [obtusifoliol],–,90,kcat (N. fowleri CYP51 [5]): 0.433 s⁻¹
"CC[C@@H]([C@H](C)O)n1ncn(-c2ccc(N3CCN(c4ccc(OC[C@@H]5CO[C@@](Cn6cncn6)(c6ccc(F)cc6F)C5)cc4)CC3)cc2)c1=O [posaconazole, reference compound]",2.0,–,–
